Here are results for 1 sequence from US12194081B2, “ARGINASE1 polypeptides” (IO BIOTECH APS, priority 2018, dated 2025).

The test system of assay [1] is PBMCs stimulated with IL-4, IL-13 or IL-2. Kind of assay: IFNγ ELISPOT of PBMCs pre-stimulated with Th2 cytokine (IL-4/IL-13) or IL-2. The class given is cell-based, human. The text has this: To check for IL-4 induced Arg1 responses, PBMCs were stimulated with IL-4 (100 or 50 U/ml) and/or IL-2 (120 or 60 U/ml) for a week before being set up in the ELISPOT assay as described above.
The PBMCs were thawed and stimulated with IL-4, (50 U/ml or 100 U/ml), IL-2 (120 U/ml) or a combination of IL-4 and IL-2 (50 U/ml and 60 U/ml respectively) for one week before being tested in IFNγ ELISPOT for responses against ArgLong2. Non-stimulated cells were used as control.
Next, PBMCs from 2 cancer patients (BC30 (breast cancer), MM27 (malignant melanoma)) and 6 healthy donors that had previously shown strong spontaneous ex vivo responses against ArgLong2 were stimulated with either low dose IL-2 (120 U/ml) or IL-4 (100 U/ml) for 7 days. Non-stimulated cells were used as control. After 7 days in culture, PBMCs were tested for reactivity against ArgLong2 in IFNγ ELISPOT.
In a separate experiment, PBMCs from a healthy donor (HD22, known to have a pre-existing ex vivo response against ArgLong2) were treated with IL-4 (100 U/ml) or IL-13 (20 U/ml) for 7 days in order to increase presentation of the Arginase 1-derived peptides in the PBMC culture and thus stimulate the intrinsic ArgLong2 specific T cells present in the PBMCs. After 7 days of stimulation with IL-4 or IL-13, the PBMCs were analysed in IFNγ ELISPOT assay to check the changes in the frequency of the ArgLong2-specific T cells.

Assay [2] relates to CD4+ and CD8+ memory T cells (CD45RO+). Briefly: ex vivo IFNγ ELISPOT of sorted memory T cells. The class given is cell-based, human. The protocol:
For in vitro ELISPOT, PBMCs from cancer patients and healthy donors were pulsed with 20 μM of Arginase 1-derived peptides and 120 U/ml IL-2 in 24-well plates for 7 days before being used in an ELISPOT assay. The cells were placed in 96-well nitrocellulose ELISPOT plates (MultiScreen MAIP N45; Millipore) pre-coated with IFNγ capture antibody (Mabtech). Arginase peptides added to a final concentration of 5 μM and plates incubated at 37° C. for 14-16 hours. After the incubation the cells were washed off and secondary biotinylated Ab (Mabtech, cat. 3420-6-1000) was added for 2 hours at room temperature. Unbound secondary antibody was washed off and streptavidin conjugated alkaline phosphatase (AP) (Mabtech, cat. 3310-10) was added for 1 hour at room temperature. Unbound conjugated enzyme was washed off and the assay was developed by adding BCIP/NBT substrate (Mabtech, cat. 3650-10). Developed ELISPOT plates were analyzed on CTL ImmunoSpot S6 Ultimate-V analyzer using Immunospot software v5.1. Responses were reported as the difference between average numbers of spots in wells stimulated with Arginase 1 and wells without added peptide.
CD4+ and CD8+ memory T cells were sorted from freshly thawed healthy donor or cancer patient PBMC samples using magnetic bead sorting kits: Memory CD4+ T Cell Isolation Kit, human (cat. 130-091-893, Miltenyi Biotec) and CD8+ Memory T Cell Isolation Kit, human (cat. 130-094-412, Miltenyi Biotec). The purity of isolated cells was assessed by staining for CD4-FITC, CD8-PerCP, CD45RO-PE (all from BD Biosciences), dead cells were stained using LIVE/DEAD™ Fixable Near-IR Dead Cell Stain Kit (Invitrogen™, ThermoFisher Scientific).
To test that CD4+ and CD8+ memory T cells were sorted from PBMCs of cancer patients and healthy donors that had shown a strong spontaneous immune response ex vivo. […] The purity of memory T cell isolation was confirmed by flow cytometric analysis for CD4+ CD45RO+ and CD8+ CD45RO+ T cells and was determined to be >95%. […] Clear CD8+ memory responses could be detected in 2 healthy donors (see FIG. 4C).

Assay [3] concerns CD4+ and CD8+ T cells in PBMCs. Kind of assay: Intracellular staining for IFNγ and TNFα in CD4+ and CD8+ T cells. The class given is cell-based, human. The protocol: Intracellular staining of cell cultures was performed after PBMCs were stimulated with arginase-derived peptides for 5 hours in the presence of BD GolgiPlug™ (added after the first hour of peptide stimulation). Stimulated cells were stained with fluorescently labeled antibodies for surface markers (CD3, CD4, CD8) and thereafter permeabilized by using Fixation/Permeabilization and Permeabilization Buffer (eBioscience, cat. 00-5123-43), according to manufacturer's instructions. Permeabilized cells were then stained with fluorochrome-labeled antibodies for IFNγ and TNFα. Flow cytometry analysis was performed on a FACSCanto™ II (BD Biosciences). Antibodies used: IFNγ-APC (cat. 341117), TNFα-455 BV421 (cat. 562783), CD4-FITC (cat. 347413), CD8-PerCP (cat. 345774), CD3-APC-H7 (cat. 560275) (all from BD Biosciences), dead cells stain-FVS510 (564406, BD Biosciences) according to manufacturer's instructions.

The test system of assay [4] is B16F10 melanoma. Briefly: Tumour vaccination, B16F10 melanoma tumour model. The class given is in vivo, mouse. The conditions noted are these: 100 μg ArgLong2 with Montanide, days 0, 7, 14; FIG. 8. The protocol: Animals were vaccinated subcutaneously with 100 μg peptide in DMSO/H2O in a 1:1 emulsion with incomplete Montanide ISA 51 VG. Montanide ISA 51 VG+DMSO/H2O served as a control vaccine. For subsequent analysis of the immune response to the ArgLong2 peptide, mice were sacrificed on day 7 and spleen and draining lymph nodes (dLNs) were harvested for ELISPOT setup.
Each animal was inoculated subcutaneously into the right flank with 0.5×10^6 syngeneic tumour cells in 100 μl media. Both the syngeneic B16 F10 melanoma cells line and the syngeneic MC38 colon adenocarcinoma cell line were used. Vaccinations were initiated on day 0 and repeated once a week (day 7 and day 14). Peptide and control vaccinations were performed as described above.
Tumour growth was monitored and tumours were measured approximately every second day. Tumour volume was calculated at V [mm^3]=L×W^2/2 (where L is the longest diameter and W perpendicular to L). Maximum tumor size before mice were euthanized was 864 mm^3 (L=12 mm, W=12 mm).

On to “ISAKDIVYIGLRDVDPGEHYILKTLGIKYFSMTEVDRL (Peptide fragment of human Arginase 1 (ArgLong2)) [38-mer, positions 169-206 of full length human Arginase 1]”, for which the “ArgLong2 responses in IL-4 and IL-13 treated PBMC cultures” value in assay [1] (healthy donor HD22, IL-4 100 U/ml or IL-13 20 U/ml for 7 days, vs untreated control, FIG. 10) was “Increased ArgLong2 responses”. For the same sequence, the “cultures with increased responses in IL-4 stimulated cultures” value in assay [1] (out of 8 cultures (2 cancer patients, 6 healthy donors), IL-4 100 U/ml for 7 days vs unstimulated and IL-2 stimulated controls, FIG. 5B) worked out at 6 cultures. The “responses against ArgLong2 after IL-4 stimulation of PBMCs” value in assay [1] (single melanoma patient, IL-4 50 or 100 U/ml, IL-2 120 U/ml or IL-4+IL-2 for one week, compared with no stimulation or IL-2 alone, FIG. 5A) is given as “Strong significant responses were seen in all IL-4 stimulated groups”. Moreover, the “cancer patients with CD4+ memory responses” value in assay [2] (sorted CD4+ CD45RO+ T cells from 2 cancer patients, FIG. 4B) worked out at 2 cancer patients. In assay [2] (sorted CD4+ CD45RO+ T cells from 4 healthy donors, FIG. 4B), the “healthy donors with CD4+ memory responses” value is 3 healthy donors. For the same sequence, in assay [2] (sorted CD8+ CD45RO+ T cells, FIG. 4C), the “healthy donors with clear CD8+ memory responses” value is on record as 2 healthy donors. In addition, the “ex vivo CD4+ responses, intracellular staining” value in assay [3] (PBMCs from two cancer patients (MM27, BC30) without prior peptide stimulation, FIG. 3B left) was “ex vivo CD4+ responses in PBMCs from both cancer patients”. In assay [3] (PBMCs from two cancer patients (MM27, BC30) without prior peptide stimulation, FIG. 3B right), the “ex vivo CD8+ responses, intracellular staining” value is reported as “ex vivo CD8+ responses in the breast cancer patient PBMCs”. For the same sequence, in assay [3] (two healthy donors and one breast cancer patient, one week after stimulation with ArgLong2 and low dose IL-2, FIG. 3A left), the “CD4+ T cell responses, in vitro intracellular staining” value was “detected in one healthy donor and in the breast cancer patient PBMCs”. Moreover, the “CD8+ T cell responses, in vitro intracellular staining” value in assay [3] (two healthy donors and one breast cancer patient, one week after stimulation with ArgLong2 and low dose IL-2, other healthy donor showed only CD8+ response, FIG. 3A right) is “detected in one healthy donor and in the breast cancer patient PBMCs”. Moreover, the “tumour growth vs control vaccination, B16” value in assay [4] is on record as “significantly delay tumour growth”.
